Source: the NIST ThermoML archive (doi:10.1016/j.jct.2005.04.013)
± gives the expanded uncertainty stated by the source.

Experiment: activity coefficient (dimensionless); of the first substance listed, at infinite dilution; xn = mol fraction of the nth substance listed
Settings: 363.65 K; Liquid; x1 = 0
`O` [water] + CCCCn1cc[n+](C)c1.[Cl-] gave an activity coefficient of 0.1.
Molecule `CO` [methanol] + CCn1cc[n+](C)c1.F[B-](F)(F)F has an activity coefficient of 0.4 ± 0.07.
Molecule `CCO` [ethanol] + CCCCCCCC[n+]1ccn(C)c1.F[B-](F)(F)F has an activity coefficient of 0.81 ± 0.06.
Molecule `C1CCOC1` [tetrahydrofuran] + CCCCn1cc[n+](C)c1.F[B-](F)(F)F has an activity coefficient of 2 ± 0.18.
For `O` [water] + CCCCCCCC[n+]1ccn(C)c1.F[B-](F)(F)F, the activity coefficient was 0.68 ± 0.06.
`CCO` [ethanol] + CCCCn1cc[n+](C)c1.[Cl-] gave an activity coefficient of 0.2 ± 0.07.
In the case of `O` [water] + CCn1cc[n+](C)c1.F[B-](F)(F)F, the activity coefficient is reported as 0.45 ± 0.07.
`C1CCOC1` [tetrahydrofuran] + CCn1cc[n+](C)c1.F[B-](F)(F)F showed an activity coefficient of 3.48 ± 0.32.
`O` [water] + CCCCn1cc[n+](C)c1.F[B-](F)(F)F gave an activity coefficient of 0.61 ± 0.06.
For `CCO` [ethanol] + CCn1cc[n+](C)c1.F[B-](F)(F)F, the activity coefficient was 1.33 ± 0.09.
`C1CCOC1` [tetrahydrofuran] + CCCCn1cc[n+](C)c1.[Cl-] showed an activity coefficient of 3.81 ± 0.35.
Molecule `C1CCOC1` [tetrahydrofuran] + CCCCCCCC[n+]1ccn(C)c1.F[B-](F)(F)F has an activity coefficient of 1.09 ± 0.06.
With `CCO` [ethanol] + CCCCn1cc[n+](C)c1.F[B-](F)(F)F the activity coefficient was 1.25 ± 0.08.
